From PubChem BioAssay (NCI)
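Exposure lasted 48 hours, with cells grown in 96-well plates and compounds tested at five concentrations. GI50 = concentration required for 50% inhibition of growth. At the TGI there is no net growth.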

Experiments:
Experiment in all cases: inhibition of tumour cell growth, NCI panel, 48 h
IGROV1 ovarian = test system: IGROV1 ovarian
CAKI-1 renal = test system: CAKI-1 renal
OVCAR-8 ovarian = test system: OVCAR-8 ovarian
OVCAR-3 ovarian = test system: OVCAR-3 ovarian
HL-60(TB) leukemia = test system: HL-60(TB) leukemia
SW-620 colon = test system: SW-620 colon
SK-MEL-28 melanoma = test system: SK-MEL-28 melanoma
HOP-92 NSCLC = test system: HOP-92 NSCLC
BT-549 breast = test system: BT-549 breast
SK-OV-3 ovarian = test system: SK-OV-3 ovarian
PC-3 prostate = test system: PC-3 prostate
K-562 leukemia = test system: K-562 leukemia
HOP-62 NSCLC = test system: HOP-62 NSCLC
TK-10 renal = test system: TK-10 renal
HT29 colon = test system: HT29 colon
SF-539 CNS = test system: SF-539 CNS
MDA-MB-435 = test system: MDA-MB-435
HCT-116 colon = test system: HCT-116 colon
SF-295 CNS = test system: SF-295 CNS
SN12C renal = test system: SN12C renal
EKVX NSCLC = test system: EKVX NSCLC
786-0 renal = test system: 786-0 renal
KM12 colon = test system: KM12 colon
HCT-15 colon = test system: HCT-15 colon
LOX IMVI melanoma = test system: LOX IMVI melanoma
UO-31 renal = test system: UO-31 renal
UACC-257 melanoma = test system: UACC-257 melanoma
ACHN renal = test system: ACHN renal

c1ccc(-c2nn(-c3ccccc3)[n+](-c3cccc4ccccc34)n2)cc1 gave a GI50 (IGROV1 ovarian) of 1.59 µM, a TGI (IGROV1 ovarian) of 40.8 µM and a GI50 (CAKI-1 renal) of 37.1 µM. The TGI (CAKI-1 renal) was > 100 µM, the GI50 (OVCAR-8 ovarian) was 1.85 µM and the TGI (OVCAR-8 ovarian) was 54.5 µM. The GI50 (OVCAR-3 ovarian) was 1.11 µM, the TGI (OVCAR-3 ovarian) was 19.1 µM and the GI50 (HL-60(TB) leukemia) was 0.386 µM. The TGI (HL-60(TB) leukemia) was 2.06 µM, the GI50 (SW-620 colon) was 1.44 µM and the TGI (SW-620 colon) was 15.9 µM. It also gave a GI50 (SK-MEL-28 melanoma) of 2.36 µM, a TGI (SK-MEL-28 melanoma) of 13.9 µM and a GI50 (HOP-92 NSCLC) of 1.15 µM. The TGI (HOP-92 NSCLC) was 7.68 µM, the GI50 (BT-549 breast) was 1.85 µM and the TGI (BT-549 breast) was 17.9 µM. The GI50 (SK-OV-3 ovarian) was 4.61 µM, the TGI (SK-OV-3 ovarian) was > 100 µM and the GI50 (PC-3 prostate) was 0.583 µM. The TGI (PC-3 prostate) was > 100 µM, the GI50 (K-562 leukemia) was 0.608 µM and the TGI (K-562 leukemia) was 16.1 µM. The GI50 (HOP-62 NSCLC) was 1.39 µM, the TGI (HOP-62 NSCLC) was 33.2 µM and the GI50 (TK-10 renal) was 8.53 µM. The TGI (TK-10 renal) was 73.6 µM, the GI50 (HT29 colon) was 0.918 µM and the TGI (HT29 colon) was 15.1 µM. It also gave a GI50 (SF-539 CNS) of 2.33 µM, a TGI (SF-539 CNS) of 27.7 µM and a GI50 (MDA-MB-435) of 0.961 µM. It also gave a TGI (MDA-MB-435) of 2.67 µM, a GI50 (HCT-116 colon) of 0.708 µM and a TGI (HCT-116 colon) of 17.9 µM. For the same molecule, the GI50 (SF-295 CNS) was 2.69 µM, the TGI (SF-295 CNS) was 26.6 µM and the GI50 (SN12C renal) was 2.45 µM. The TGI (SN12C renal) was > 100 µM, the GI50 (EKVX NSCLC) was 0.583 µM and the TGI (EKVX NSCLC) was 33.3 µM. For the same molecule, the GI50 (786-0 renal) was 5.1 µM, the TGI (786-0 renal) was 29.3 µM and the GI50 (KM12 colon) was 0.701 µM. The TGI (KM12 colon) was 11.3 µM, the GI50 (HCT-15 colon) was 31.5 µM and the TGI (HCT-15 colon) was > 100 µM. For the same molecule, the GI50 (LOX IMVI melanoma) was 1.23 µM, the TGI (LOX IMVI melanoma) was > 100 µM and the GI50 (UO-31 renal) was 14 µM. For the same molecule, the TGI (UO-31 renal) was > 100 µM, the GI50 (UACC-257 melanoma) was 0.48 µM and the TGI (UACC-257 melanoma) was 8.18 µM. For the same molecule, the GI50 (ACHN renal) was 12 µM and the TGI (ACHN renal) was > 100 µM.
